# Experimental data from patent US6933108B2 (priority 1999, dated 2005).
# Entries after “also recorded” stand apart in the source; their conditions may differ.
# How the values were obtained:
# FR-α = FR-α (Homo sapiens, UniProt P15328); conditions: cited from earlier work
# MBG pseudotype virus = assay type: cell-based, Marburg virus
# Ampho luciferase virus = assay type: cell-based, amphotropic murine leukemia virus
# EBO-Z pseudotype virus = assay type: cell-based, Ebola-Zaire virus
# [1] = system: Filoviruses, including the Marburg and Ebola viruses; conditions: cited from earlier work
# Chain of FR-α (P15328 25-234): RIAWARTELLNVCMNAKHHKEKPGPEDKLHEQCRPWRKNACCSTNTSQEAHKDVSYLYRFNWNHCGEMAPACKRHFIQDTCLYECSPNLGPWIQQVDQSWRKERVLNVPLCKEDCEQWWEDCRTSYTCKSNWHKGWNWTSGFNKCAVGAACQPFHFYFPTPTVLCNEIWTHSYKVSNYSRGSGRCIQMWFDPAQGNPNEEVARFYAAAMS
smiles,measurement,setting,value
CN1c2c(nc(N)[nH]c2=O)NCC1CNc1ccc(C(=O)N[C@@H](CCC(=O)O)C(=O)O)cc1 (stereo partly drawn) [5-methyltetrahydrofolic acid],binding affinity to FR-α,FR-α,high affinity
Nc1nc2ncc(CNc3ccc(C(=O)N[C@@H](CCC(=O)O)C(=O)O)cc3)nc2c(=O)[nH]1 [folic acid],entry by MBG luciferase virus,MBG pseudotype virus,specifically inhibited
same,reduction of MBG virus entry,MBG pseudotype virus,~80%
same,entry by Ampho luciferase pseudotype,Ampho luciferase virus,very slight alteration; also recorded: did not significantly decrease; also recorded: not Ampho
same,entry by EBO-Z virus,EBO-Z pseudotype virus,inhibited significantly; also recorded: specifically inhibited
NC(=O)c1ncn([C@@H]2O[C@H](CO)[C@@H](O)[C@H]2O)n1 [ribavirin],in vitro effect against filoviruses,[1],no in vitro effect
